Measured values from the CheMixHub viscosity set.

Experiment: xn = mol fraction of the nth substance listed

NCCN1CCNCC1 + O
101.3 kPa
Conditions | viscosity [mPa·s]
298 K, x1 = 0.00152 | 0.92
298 K, x1 = 0.00275 | 0.95
298 K, x1 = 0.00774 | 1.11
298 K, x1 = 0.0161 | 1.38
298 K, x1 = 0.0255 | 1.82
303 K, x1 = 0.00152 | 0.87
303 K, x1 = 0.00275 | 0.89
303 K, x1 = 0.00774 | 1
303 K, x1 = 0.0161 | 1.25
303 K, x1 = 0.0255 | 1.66
303.2 K, x1 = 0.015 | 1.241
303.2 K, x1 = 0.024 | 1.651
303.2 K, x1 = 0.034 | 2.17
303.2 K, x1 = 0.044 | 2.861
303.2 K, x1 = 0.056 | 3.918
303.2 K, x1 = 0.07 | 4.722
303.2 K, x1 = 0.085 | 5.556
313 K, x1 = 0.00152 | 0.74
313 K, x1 = 0.00275 | 0.78
313 K, x1 = 0.00774 | 0.85
313 K, x1 = 0.0161 | 1.04
313 K, x1 = 0.0255 | 1.32
313.2 K, x1 = 0.015 | 1.001
313.2 K, x1 = 0.024 | 1.312
313.2 K, x1 = 0.034 | 1.589
313.2 K, x1 = 0.044 | 2.074
313.2 K, x1 = 0.056 | 2.839
313.2 K, x1 = 0.07 | 3.558
313.2 K, x1 = 0.085 | 4.367
323 K, x1 = 0.00152 | 0.6
323 K, x1 = 0.00275 | 0.61
323 K, x1 = 0.00774 | 0.69
323 K, x1 = 0.0161 | 0.83
323 K, x1 = 0.0255 | 1.03

NCCNCCN + O
viscosity [mPa·s], 101 kPa
Conditions | 293.15 K | 298.15 K | 303.15 K | 313.15 K | 323.15 K
x1 = 0.0425 | – | 2.44 | 2.06 | 1.55 | 1.23
x1 = 0.0565 | – | – | – | – | 1.615
x1 = 0.0568 | – | 3.46 | 2.88 | 2.07 | 1.6
x1 = 0.1 | 11.17 | – | 7.2 | 4.78 | 3.41
x1 = 0.1999 | 48.86 | – | 24.8 | 14.08 | 8.54
x1 = 0.2999 | 61.11 | – | 30.19 | 16.63 | 10.2
x1 = 0.3997 | 44.08 | – | 23.49 | 13.62 | 8.35
x1 = 0.4997 | 29.78 | – | 16.66 | 10.31 | 6.79
x1 = 0.5997 | 20.36 | – | 12.11 | 7.77 | 5.28
x1 = 0.6996 | 14.64 | – | 9.24 | 6.17 | 4.22
x1 = 0.7992 | 10.95 | – | – | 4.9 | 3.55
x1 = 0.8073 | – | – | – | – | 3.445
x1 = 0.8954 | 8.515 | – | – | – | –
x1 = 0.8989 | 8.48 | – | 5.52 | 4.11 | 3.03

O.OC[C@H]1O[C@H](O[C@H]2[C@H](O)[C@@H](O)[C@H](O)O[C@@H]2CO)[C@H](O)[C@@H](O)[C@@H]1O + O
viscosity [mPa·s]
Conditions | x1 = 0.000899 | x1 = 0.001221 | x1 = 0.001607 | x1 = 0.001874 | x1 = 0.002333 | x1 = 0.002646 | x1 = 0.006
298.15 K, 101 kPa | 0.936 | 0.956 | 0.974 | 0.988 | 1.012 | 1.026 | –
308.15 K, 101 kPa | 0.756 | 0.77 | 0.785 | 0.795 | 0.815 | 0.825 | –
310 K, 101.3 kPa | – | – | – | – | – | – | 1.09
318.15 K, 101 kPa | 0.626 | 0.636 | 0.649 | 0.657 | 0.671 | 0.681 | –

[F-].[K+] + O
Conditions | viscosity [mPa·s]
298.15 K, 100 kPa, x1 = 0.02 | 1.005
298.15 K, 100 kPa, x1 = 0.03 | 1.133
298.15 K, 100 kPa, x1 = 0.07 | 1.53
298.15 K, 100 kPa, x1 = 0.1 | 2.16
298.15 K, 100 kPa, x1 = 0.2 | 3.23
303.15 K, 101 kPa, x1 = 0.002 | 0.808
303.15 K, 101 kPa, x1 = 0.005 | 0.828
303.15 K, 101 kPa, x1 = 0.009 | 0.849
308.15 K, 101 kPa, x1 = 0.002 | 0.735
308.15 K, 101 kPa, x1 = 0.005 | 0.754
308.15 K, 101 kPa, x1 = 0.009 | 0.778
313.15 K, 101 kPa, x1 = 0.005 | 0.687
313.15 K, 101 kPa, x1 = 0.009 | 0.709
318.15 K, 101 kPa, x1 = 0.005 | 0.632
318.15 K, 101 kPa, x1 = 0.009 | 0.651
323.15 K, 100 kPa, x1 = 0.02 | 0.5955
323.15 K, 100 kPa, x1 = 0.03 | 0.7039
323.15 K, 100 kPa, x1 = 0.07 | 0.9529
323.15 K, 100 kPa, x1 = 0.1 | 1.35
323.15 K, 100 kPa, x1 = 0.2 | 2.021
